Laboratory results from US10792365B2, “Peptide derivative and use thereof” (Toray Industries, Inc., priority 2016, dated 2020).
Where a name gives a salt, the structure may show the parent alone. Read-outs that look alike come from different tables or passages of the source.

Key:
SKOV-3 cells = test: In vitro cytotoxicity of the peptide derivative (I), MTS method, SKOV-3 cells; format: cell-based, human
Text: (§1) The cytotoxicity of the peptide derivative (I) or a pharmaceutically acceptable salt thereof, or the conjugate including the peptide derivative (I) or a pharmaceutically acceptable salt thereof can be evaluated with an in vitro study. Examples of the in vitro studies include the trypan blue dye exclusion method, the lactate dehydrogenase (LDH) activity assay, [^3H]thymidine incorporation method, or propidium iodide nuclear stain that each measures the number of dead cells or surviving cells post treated with the compound; a method using dyes such as MTT, MTS, and WST (Current Protocol in Toxicology, (2000), 2.6.1-2.6.27); or a method in which the amount of ATP is measured using CellTiter-Glow (Promega Corporation) and the like, and preferably include the method in which the number of surviving cells post treated with the compound is measured by using the MTS method to determine values of the cytotoxicity at that time from 50% effect-concentration (EC50). Furthermore, in the evaluation of the cytotoxicity of the conjugate including the peptide derivative (I) or a pharmaceutically acceptable salt thereof, preferred method is the one that for a certain time, cells are treated with a medium containing the compound, the cells are then transferred to a medium not containing the compound, and the number of surviving cells are measured after cultivation for additional certain time (Bioconjugate Chemistry., 2014; 25: pp. 560-568). For the in vitro studies, human ovarian cancer cell SKOV-3 cells, human alveolar basement epithelial gland cancer cell A549 cells, mouse lymphocytic leukocyte L1210 cells and the like are used.

A549 cells = test: In vitro cytotoxicity of the peptide derivative (I), MTS method, A549 cells; format: cell-based, human
Text: as §1

L1210 cells = test: In vitro cytotoxicity of the peptide derivative (I), MTS method, L1210 cells; format: cell-based, mouse
Text: as §1

[1] = Parallel Artificial Membrane Permeation Assay (PAMPA), Pre-coated PAMPA Plate System (Corning); settings: for Membrane Permeability Coefficient: 200 μmol/L in PBS containing 20% of methanol, room temperature, five hours, N.D. = Acceptor side concentration less than lower limit of determinate quantity
Protocol: Reference Example 14, the Compound of Reference Example 16, and the Compound of Comparative Example was Evaluated by Using Pre-Coated PAMPA PlateSystem (Corning)
A frozen-stored, Pre-coated PAMPA Plate System was allowed to stand at room temperature for thirty minutes or more. Subsequently, 320 μL of the standard solution was added to a Donor side plate of Pre-coated PAMPA Plate System, and 200 μL of the PBS containing 20% of methanol was added to an Acceptor side plate. Both of the plates were set for the system, and the plates allowed to stand at room temperature for five hours. The reaction liquid in each well of the Donor side and Acceptor side plates was subjected to LC/MS analysis (hereinafter, LC/MS-3), and the concentration of the compounds in each well calculated.
Using the obtained concentration of the compounds in the reaction liquid in each well, the membrane permeability coefficients (Pe) (cm/s) were calculated by the following formula: Cequilibrium=[…] Pe=[−ln(1−CA/Cequilibrium)]/S×(1/VD+1/VA)×t Cequilibrium: Equilibrium concentration of the wells in the Donor side and Acceptor side plates CD: Concentration after five hours of the wells in the Donor side plate (mmol/L) VD: Volume of the standard solution added to the wells in the Donor side plate (0.32 mL) CA: Concentration after five hours of the wells in the Acceptor side plate (mmol/L) VA: Volume of the PBS containing 20% of methanol added to the wells in the Acceptor side plate (0.2 mL) S: Surface of the membrane (0.3 cm^2) t: Standing time 18,000 s (=5 hrs).

Structure (SMILES)	EC50 (SKOV-3 cells) [nM]	EC50 (A549 cells) [nM]	EC50 (L1210 cells) [nM]	Membrane Permeability Coefficient [1]	EC50 (SKOV-3 cells; Homo sapiens, SK-OV-3) [nM]	EC50 (A549 cells; Homo sapiens) [nM]	EC50 (L1210 cells; Mus musculus) [nM]	Papp at 5 h, 200 μmol/L [1] [×10⁻⁶ cm/s]
CCNC(=O)c1csc([C@H](Cc2ccccc2)NC(=O)[C@@H](C)[C@@H](OC)[C@@H]2CCCN2C(=O)C[C@@H](OC)[C@H]([C@@H](C)CC)N(C)C(=O)[C@@H](NC(=O)[C@H](C(C)C)N(C)C)C(C)C)n1 [Comparative Example, reference compound]	0.55	0.74	6.51	1.68 10^−6 cm/s				
CC[C@H](C)[C@@H]([C@@H](CC(=O)N1CCC[C@H]1[C@H](OC)[C@@H](C)C(=O)N[C@@H](Cc1ccccc1)c1nc(C(=O)NCCS)cs1)OC)N(C)C(=O)[C@@H](NC(=O)[C@H](C(C)C)N(C)C)C(C)C [Example 1]					0.44	1.93	31.4	1.15
CC[C@H](C)[C@@H]([C@@H](CC(=O)N1CCC[C@H]1[C@H](OC)[C@@H](C)C(=O)N[C@@H](Cc1ccccc1)c1nc(C(=O)OCCS)cs1)OC)N(C)C(=O)[C@@H](NC(=O)[C@H](C(C)C)N(C)C)C(C)C [Example 2, 2-mercaptoethyl 2-((S)-1-((2R,3R)-3-((S)-1-((3R,4S,5S)-4-((S)-2-((S)-2-(dimethylamino)-3-methylbutanamido)-N,3-dimethylbutanamido)-3-methoxy-5-methylheptanoyl)pyrrolidin-2-yl)-3-methoxy-2-methylpropanamido)-2-phenylethyl)thiazole-4-carboxylate]					0.13	6.88	14.2	0.005
CC[C@H](C)[C@@H]([C@@H](CC(=O)N1CCC[C@H]1[C@H](OC)[C@@H](C)C(=O)N[C@@H](Cc1ccccc1)c1nc(C(=O)N(C)CCS)cs1)OC)N(C)C(=O)[C@@H](NC(=O)[C@H](C(C)C)N(C)C)C(C)C [Example 3]					1.05	1.22	6.96	1.14
CC[C@H](C)[C@@H]([C@@H](CC(=O)N1CCC[C@H]1[C@H](OC)[C@@H](C)C(=O)N[C@@H](Cc1ccccc1)c1nc(C(=O)OCCN)cs1)OC)N(C)C(=O)[C@@H](NC(=O)[C@H](C(C)C)N(C)C)C(C)C [Example 4]					0.85	0.83	28.7	0.01
CC[C@H](C)[C@@H]([C@@H](CC(=O)N1CCC[C@H]1[C@H](OC)[C@@H](C)C(=O)N[C@@H](Cc1ccccc1)c1nc(C(=O)N(C)CCN)cs1)OC)N(C)C(=O)[C@@H](NC(=O)[C@H](C(C)C)N(C)C)C(C)C [Example 5, N-(2-aminoethyl)-2-((S)-1-((2R,3R)-3-((S)-1-((3R,4S,5S)-4-((S)-2-((S)-2-(dimethylamino)-3-methylbutanamido)-N,3-dimethylbutanamido)-3-methoxy-5-methylheptanoyl)pyrrolidin-2-yl)-3-methoxy-2-methylpropanamido)-2-phenylethyl)-N-methylthiazole-4-carboxamide dihydro chloride]					0.56	0.81	11.7	0.01
CC[C@H](C)[C@@H]([C@@H](CC(=O)N1CCC[C@H]1[C@H](OC)[C@@H](C)C(=O)N[C@@H](Cc1ccccc1)c1nc(C(=O)N(C)CCNC)cs1)OC)N(C)C(=O)[C@@H](NC(=O)[C@H](C(C)C)N(C)C)C(C)C [Example 6, 2-((S)-1-((2R,3R)-3-((S)-1-((3R,4S,5S)-4-((S)-2-((S)-2-(dimethylamino)-3-methylbutanamido)-N,3-dimethylbutanamido)-3-methoxy-5-methylheptanoyl)pyrrolidin-2-yl)-3-methoxy-2-methylpropanamido)-2-phenylethyl)-N-methyl-N-(2-(methylamine)ethyl)thiazole-4-carboxamide dihydrochloride]					0.22	1.94	17.2	
CC[C@H](C)[C@@H]([C@@H](CC(=O)N1CCC[C@H]1[C@H](OC)[C@@H](C)C(=O)N[C@@H](Cc1ccccc1)c1nc(C(=O)NCCO)cs1)OC)N(C)C(=O)[C@@H](NC(=O)[C@H](C(C)C)N(C)C)C(C)C [Example 7]					4.67	1.74	28.4	0.02
CC[C@H](C)[C@@H]([C@@H](CC(=O)N1CCC[C@H]1[C@H](OC)[C@@H](C)C(=O)N[C@@H](Cc1ccccc1)c1nc(C(=O)OCCO)cs1)OC)N(C)C(=O)[C@@H](NC(=O)[C@H](C(C)C)N(C)C)C(C)C [Example 8, 2-hydroxyethyl 2-((S)-1-((2R,3R)-3-((S)-1-((3R,4S,5S)-4-((S)-2-((S)-2-(dimethylamino)-3-methylbutanamido)-N,3-dimethylbutanamido)-3-methoxy-5-methylheptanoyl)pyrrolidin-2-yl)-3-methoxy-2-methylpropanamido)-2-phenylethyl)thiazole-4-carboxylate]					0.09	1.75	4.74	0.04
CC[C@H](C)[C@@H]([C@@H](CC(=O)N1CCC[C@H]1[C@H](OC)[C@@H](C)C(=O)N[C@@H](Cc1ccccc1)c1nc(C(=O)N(C)CCO)cs1)OC)N(C)C(=O)[C@@H](NC(=O)[C@H](C(C)C)N(C)C)C(C)C [Example 9]					1.5	1.64	8.52	0.08
CC[C@H](C)[C@@H]([C@@H](CC(=O)N1CCC[C@H]1[C@H](OC)[C@@H](C)C(=O)N[C@@H](Cc1ccccc1)c1nc(C(=O)NCCc2ccc(N)cc2)cs1)OC)N(C)C(=O)[C@@H](NC(=O)[C@H](C(C)C)N(C)C)C(C)C [Example 10]					0.27	1.08	4.05	0.3
CC[C@H](C)[C@@H]([C@@H](CC(=O)N1CCC[C@H]1[C@H](OC)[C@@H](C)C(=O)N[C@@H](Cc1ccccc1)c1nc(C(=O)NCCc2ccc(O)cc2)cs1)OC)N(C)C(=O)[C@@H](NC(=O)[C@H](C(C)C)N(C)C)C(C)C [Example 11, 2-((S)-1-((2R,3R)-3-((S)-1-((3R,4S,5S)-4-((S)-2-((S)-2-(dimethylamino)-3-methylbutanamido)-N,3-dimethylbutanamido)-3-methoxy-5-methylheptanoyl)pyrrolidin-2-yl)-3-methoxy-2-methylpropanamido)-2-phenylethyl)-N-(4-hydroxyphenethyl)thiazole-4-carboxamide]					0.37	1.31	5.61	0.36
CC[C@H](C)[C@@H]([C@@H](CC(=O)N1CCC[C@H]1[C@H](OC)[C@@H](C)C(=O)N[C@@H](Cc1ccccc1)c1nc(C(=O)O)cs1)OC)N(C)C(=O)[C@@H](NC(=O)[C@H](C(C)C)N(C)C)C(C)C [Reference Example 1, 2-((S)-1-((2R,3R)-3-((S)-1-((3R,4S,5S)-4-((S)-2-((S)-2-(dimethylamino)-3-methylbutanamido)-N,3-dimethylbutanamido)-3-methoxy-5-methylheptanoyl)pyrrolidin-2-yl)-3-methoxy-2-methylpropanamido)-2-phenylethyl)thiazole-4-carboxylic acid, reference compound]				0.01 10^−6 cm/s	> 10	> 10	> 50	
CC[C@H](C)[C@@H]([C@@H](CC(=O)N1CCC[C@H]1[C@H](OC)[C@@H](C)C(=O)N[C@@H](Cc1ccccc1)c1nc(C(=O)NCCNC(=O)CCS)cs1)OC)N(C)C(=O)[C@@H](NC(=O)[C@H](C(C)C)N(C)C)C(C)C [Reference Example 16, reference compound]					> 10	> 10	> 50	
